Source: US20250002435A1, “ARYLATED FENCHONE DERIVATIVES, COMPOSITIONS COMPRISING THEM, PROCESSES FOR THEIR PREPARATION AND USES THEREOF” (priority 2021, published 2025)
Several values for one entry are separate records, joined by “and”; a condition that tells them apart may be missing. Equal values may be shown once.

Assays:
[1] = target: mCB1R (Mus musculus (Mouse), UniProt P47746); assay: [3H]CP-55,940 competition displacement binding, crude membranes from mouse brain; details: for Ki: displacement of [3H]CP-55,940, NB = No binding detected at concentrations up to 10 μM, read-out: Ki (nM) mCB1R
Procedure: Affinity for Cannabinoid Receptors. The compounds were further characterized using a radioligand binding assay to determine their affinities for CB1R and CB2R based on each test compound's ability to displace the radiolabeled CB1R/CB2R agonist CP-55,940 from membranes prepared from a mouse brain (a source of CB1R) and membranes of cells expressing the human CB2R. […] Therefore, the compounds were assayed using membranes from CHO-K1 cells expressing the human CB2R (hCB2R).
Membranes from cells expressing human CB2R were purchased from Charles River, (Cat #A308; Ohio, US). Solutions of test compounds ranging from 0.1 nM to 10 mM were prepared in DMSO. The desired amount of membrane preparation was diluted with ice-cold assay buffer (50 mM Tris-HCl, 2.5 mM EDTA, 5 mM MgCl2, 0.1% BSA, pH 7.4) and was vortexed. […] The assays were incubated for 90 minutes at 30° C. and then immediately filtered on WHATMAN GF/B FilterPaper (Fired) using a Brandel M-24R Harvester followed by six washes with ice cold wash buffer (50 mM Tris-HCl, 2.5 mM EDTA, 5 mM MgCl2, 0.1% BSA, pH 7.4). Radioactivity was detected by adding the FilterPaper directly to the ULTIMA GOLD scintillation cocktail (PerkinElmer), incubation at 20° C. for 60 min and then counted using a Tri-Carb 4910TR liquid scintillation counter.

[2] = target: CNR2 (Homo sapiens (Human), UniProt P34972); assay: cAMP Hunter antagonist assay, CB2; assay type: cell-based; details: cAMP antagonist mode
Procedure: (§1) Cannabinoid receptors belong to G-protein-coupled receptors which may transduce intracellular agonist-antagonist responses regulating in part levels of cAMP within the cells. Fenchone derivates were assayed using Eurofins proprietary assays (i.e. CB1-Antagonist Catalog #86-0007P-2277AN; CB2-Antagonist Catalog ref. 86-0007P-2818AN; CB1-Agonist; Catalog #86-0007P-2277AG; CB2-Agonist-Catalog #86-0007P-2818AG).
(§2) Briefly, for antagonist activity, cAMP Hunter™ Gi cell lines overexpress naturally Gi coupled, wild type GPCRs and are designed to detect inhibition of intracellular cAMP production in response to agonist stimulation of the receptor. These cell lines are designed to be used in conjunction with the HitHunter® cAMP Assay Detection Kit.
as §2, with “Similarly,” for “Briefly,”, “agonist” for “antagonist”, “Gs” for “Gi”, “increases in” for “inhibition of”, “levels” for “production”, “Kit. […]” for “Kit.”

[3] = target: hCB2R (Homo sapiens (Human), UniProt P34972); assay: [35S]GTPγS binding assay, hCB2R CHO cell membranes; assay type: biochemical; details: for functional activity at hCB2R (agonist / inverse agonist): [35S]GTPγS binding; for EC50: [35S]GTPγS binding to hCB2R, two independent experiments in triplicate; for E(max) %: percentage of HU-308 response at 1 μM
Procedure: Functional Characterization.
The method used for measuring agonist-stimulated binding of [^35S]GTPγS was based on a described protocol. The assays were carried out with GTPγS assay buffer (50 mM Tris HCl (pH 7.4), 0.2 mM EGTA, 9 mM MgCl2, 150 mM NaCl, 1 mg/ml BSA). Briefly, membranes (5 μg protein) were incubated in assay buffer containing 100 μM GDP, 0.05 nM [^35S]GTPγS, test compounds at various concentrations in siliconized glass tubes. Bound ligand was separated from free ligand by vacuum filtration. Nonspecific binding was determined using 10 μM GTPS. Basal binding was assayed in the absence of the ligand and in the presence of GDP.

[4] = target: CNR1 (Homo sapiens (Human), UniProt P21554); assay: cAMP Hunter antagonist assay, CB1; assay type: cell-based; details: cAMP antagonist mode
Procedure: as §1, §2
as §2, with “Similarly,” for “Briefly,”, “agonist” for “antagonist”, “Gs” for “Gi”, “increases in” for “inhibition of”, “levels” for “production”, “Kit. […]” for “Kit.”

[5] = test system: zymosan-induced paw swelling; assay: zymosan mouse paw inflammatory pain model, paw swelling, with or without CB2 antagonists; assay type: in vivo; details: for paw swelling vs control: 6 h; for paw swelling effects: SR144528 experiment, 24 h after induction
Procedure: To induce inflammation, 40 μL of 1.5% (w/v) zymosan A (Sigma) suspended in 0.9% saline was injected into the sub-planter surface of the right hind paw of the mice. Immediately after zymosan injection, antagonists were injected intraperitoneally (IP) and after 30 minutes, the fenchone derivatives dissolved in 0.1 mL vehicle containing ethanol:Cremophore:saline at a ratio of 1:1:18 were injected. Control mice were injected with the vehicle only. After 2, 6, and 24 hrs, paw swelling, and pain perception were measured.
Specifically, measurement of Oedema Formation was assessed by monitoring paw swelling via calibrated calipers (0.01 mm), 6 and 24 hrs following injections of zymosan alone and/or the test compounds. Pain hyperalgesia was evaluated by the paw withdrawal von Frey test at 6, and 24 h following injections of zymosan and/or the test compounds. […] In this study, only 1.4-60 g corresponding to 4.17 to 5.88 log of force was used, to test the mouse sensitivity to a mechanical stimulus on the swollen paw. The measurements were performed in a quiet room. Before paw pain measurements, the animals were held for 10 sec. The trained investigator applied the filament to the central area of the hind paw with gradual increasing size. The test consisted of poking the middle of the hind paw to provoke a flexion reflex followed by a clear flinch response after paw withdrawal. Each one of the von Frey filaments was applied for approximately 3-4 s to induce the end-point reflex. The first testing was done by using the force filament of 1.4 g. If there was no withdrawal response, the next higher stimulus was tried. The mechanical threshold force (in grams (g)) was defined as the lowest force imposed by two von Frey monofilaments of various sizes, required to produce a paw retraction. The untreated left hind paw served as a control.

[6] = 25 mg/kg IP together with CB2 antagonist SR144528 1 mg/kg

Sequence of mCB1R (P47746 whole entry): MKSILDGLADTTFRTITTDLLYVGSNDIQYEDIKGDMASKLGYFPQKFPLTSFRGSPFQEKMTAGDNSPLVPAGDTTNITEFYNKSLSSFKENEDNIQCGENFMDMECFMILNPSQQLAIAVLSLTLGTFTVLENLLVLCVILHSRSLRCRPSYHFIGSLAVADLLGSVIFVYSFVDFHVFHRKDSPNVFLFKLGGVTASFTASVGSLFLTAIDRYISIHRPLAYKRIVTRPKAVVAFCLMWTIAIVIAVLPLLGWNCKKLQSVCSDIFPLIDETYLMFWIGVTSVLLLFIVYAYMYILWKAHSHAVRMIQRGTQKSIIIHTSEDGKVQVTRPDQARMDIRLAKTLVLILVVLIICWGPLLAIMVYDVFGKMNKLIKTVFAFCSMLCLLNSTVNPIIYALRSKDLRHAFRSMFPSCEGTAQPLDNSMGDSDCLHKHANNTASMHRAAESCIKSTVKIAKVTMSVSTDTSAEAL
Sequence of hCB2R (P34972 whole entry): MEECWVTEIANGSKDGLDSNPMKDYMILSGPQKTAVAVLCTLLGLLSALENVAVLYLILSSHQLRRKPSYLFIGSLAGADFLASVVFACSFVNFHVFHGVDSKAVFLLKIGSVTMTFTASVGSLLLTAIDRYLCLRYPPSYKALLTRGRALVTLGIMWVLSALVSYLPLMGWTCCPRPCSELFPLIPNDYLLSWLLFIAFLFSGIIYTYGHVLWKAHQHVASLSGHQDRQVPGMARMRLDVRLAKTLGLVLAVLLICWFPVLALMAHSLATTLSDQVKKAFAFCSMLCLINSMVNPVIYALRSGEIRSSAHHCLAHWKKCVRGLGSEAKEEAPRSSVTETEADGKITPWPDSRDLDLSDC

Structure (SMILES)	Ki [1] [nM]	inhibition of [3H]CP-55,940 binding to mCB1R ([1]; in words)	antagonistic effect CNR2 [2]	functional activity at hCB2R (agonist / inverse agonist) [3]	EC50 [3]	E(max) % [3] [%]	antagonistic effect CNR1 [4]	paw swelling vs control [5, 6]	paw swelling vs control ([5]; 25 mg/kg IP, alone)	paw swelling effects [5]	paw swelling ([5]; 25 mg/kg IP 1D and 10 mg/kg AM630, 6 h)	paw swelling ([5]; 25 mg/kg IP alone, 24 h, AM630 experiment)
CCCCCc1cc(OC)c(C2(O)C3(C)CCC(C3)C2(C)C)c(OC)c1 (single isomer, unassigned) [Compound 1b, 2-(2,6′-dimethoxy-4′-pentylphenyl)-1,3,3-trimethylbicyclo[2.2.1]heptan-2-ol]	2290	no detectable inhibition	no detectable antagonistic effect	agonist	11.6 nM	65.1	no detectable antagonistic effect	paw swelling was unaffected	reduced swelling response	not observed	–	–
CCCCCCC(C)(C)c1cc(OC)c([C@]2(O)C3(C)CCC(C3)C2(C)C)c(OC)c1 (stereo partly drawn) [Compound 1d, 2-(2,6′-dimethoxy-4′-(2″-methyloctan-2″-yl)phenyl)-1,3,3-trimethyl-bicyclo[2.2.1]heptan-2-ol]	427	–	no detectable antagonistic effect	agonist	2.6 nM and 2.59 nM	89.63	no detectable antagonistic effect	swelling was reduced compared to the control	reduced swelling response	not observed	reduced swelling	reduced swelling with 1D alone was sustained
